Reference: PubChem BioAssay (NCI)
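Exposure lasted 48 hours, with cells grown in 96-well plates and compounds tested at five concentrations. GI50 = concentration required for 50% inhibition of growth. TGI is the concentration that stops growth completely.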

Key:
Assay in all cases: inhibition of tumour cell growth, NCI panel, 48 h
[1] = test system: IGROV1 ovarian
[2] = test system: MOLT-4 leukemia
[3] = test system: 786-0 renal
[4] = test system: SW-620 colon
[5] = test system: SK-MEL-28 melanoma
[6] = test system: OVCAR-8 ovarian
[7] = test system: HCT-15 colon
[8] = test system: SF-539 CNS
[9] = test system: CAKI-1 renal
[10] = test system: MCF7 breast

SMILES	TGI [1] [µM]	TGI [2] [µM]	TGI [3] [µM]	TGI [4] [µM]	TGI [5] [µM]	TGI [6] [µM]	TGI [7] [µM]	TGI [8] [µM]	TGI [9] [µM]	GI50 [1] [µM]	GI50 [2] [µM]	GI50 [3] [µM]	GI50 [10] [µM]	TGI [10] [µM]	GI50 [4] [µM]	GI50 [5] [µM]	GI50 [6] [µM]	GI50 [7] [µM]	GI50 [8] [µM]	GI50 [9] [µM]
Clc1ccc(C2N3CCCCC3[C@@H]3c4[nH]c5ccccc5c4CCN23)cc1 (stereo partly specified)	> 100	> 100	> 100	> 100	> 100	> 100	> 100	> 100	> 100	–	–	–	–	–	–	–	–	–	–	–
NCC(=O)NS(=O)(=O)OC[C@H]1O[C@@H](n2cnc3c(N)ncnc32)[C@H](O)[C@@H]1O	7.68	8.86	3.47	24.6	4.14	7.59	10.1	3.58	–	3.04	2.62	1.77	2.85	18.7	3.71	1.93	2.48	2.92	1.43	–
N#CC(C(=N/O)/C(=N/O)C(C#N)c1ccc(Cl)cc1)c1ccc(Cl)cc1 (stereo unspecified)	> 100	–	> 100	> 100	> 100	> 100	> 100	> 100	> 100	–	–	–	–	–	–	–	–	–	–	–
CCCCNC1=C(C(=O)OCC)C(=O)CO1	> 100	> 100	> 100	> 100	> 100	> 100	> 100	> 100	> 100	–	–	–	–	–	–	–	–	–	–	–
CCCCN(CCCC)C(=O)C(=O)C(C#N)c1ccc(C)cc1 (stereo unspecified)	> 100	> 100	> 100	> 100	> 100	> 100	> 100	> 100	> 100	–	–	–	–	–	–	–	–	–	–	–
CC12CC[C@@H](C(C)(C)O)C1[C@@H](O)CC1(C)C2CCC2[C@@]3(C)CC[C@H](O)C(C)(C)C3C(O)C[C@]21C (stereo partly specified)	39.5	–	33.8	39	40.2	41.2	29.4	35.3	–	–	–	–	–	–	–	–	–	–	–	–
CCOC(=O)NC(=O)c1cn(C2OC(COC(=O)CCCCCCCCC(=O)OCC3OC(n4cc(C(=O)NC(=O)OCC)c(=O)[nH]c4=O)C(O)C3O)C(O)C2O)c(=O)[nH]c1=O (stereo unspecified)	> 100	> 100	> 100	> 100	> 100	> 100	> 100	> 100	> 100	–	–	–	–	–	–	–	–	–	–	–
O=C1OCc2c1cc1ccc(O)c(OC3OC(CO)C(O)C(O)C3O)c1c2-c1ccc2c(c1)OCO2 (stereo unspecified)	> 100	> 100	> 100	> 100	> 100	> 100	> 100	> 100	> 100	–	34.3	–	–	–	–	–	–	–	–	–
CN(C(=O)C12C3C4C1C1C2C3C41C(=O)C(C)(C)C)C(C)(C)C (stereo unspecified)	> 100	> 100	> 100	> 100	> 100	> 100	–	> 100	> 100	–	–	–	–	–	–	–	–	–	–	–
CCNCCNc1cc(-c2ccc(C(=O)OC)cc2)c(C#N)c2nc3ccccc3n12	> 100	–	3.46	2.67	3.45	5.32	4.65	3.33	> 100	2.38	–	1.56	1.52	> 100	0.488	1.72	2.13	1.47	1.74	2.92
N#C/C(=C/c1ccsc1)C(=O)c1ccccc1	–	> 100	> 100	> 100	> 100	> 100	> 100	> 100	> 100	–	–	–	–	–	–	–	–	–	–	–
O=C1c2c(c3c4ccccc4n(CCCCCCBr)c3c3[nH]c4ccccc4c23)C(=O)N1O	9.38	5.68	5.81	14.3	15.7	10.3	11.2	3.77	9.5	2.13	1.94	2.09	–	–	3.56	2.95	3.11	2.64	1.78	2.86
O=C(N/N=C/c1ccccc1O)c1cccc([N+](=O)[O-])c1	79.6	> 100	> 100	> 100	> 100	> 100	> 100	> 82.1	–	–	–	–	–	–	–	–	–	–	–	–
COc1cnc2cc(C(=O)O)c3c([N+](=O)[O-])cccc3c2c1	> 100	> 100	> 100	> 100	> 100	> 100	> 100	–	> 100	–	–	–	–	> 100	–	–	–	–	–	–
CC1(Cl)C(=O)NC(=O)N(C2CC(N=[N+]=[N-])C(CO)O2)C1N=[N+]=[N-] (stereo unspecified)	> 100	> 100	> 100	> 100	> 100	> 100	> 100	> 100	> 100	–	–	–	–	–	–	–	–	–	–	–
Cc1ccc(C)c(NC(=O)CC/C(=N\NC(=O)C(=O)NN)C(C)C(=O)c2ccc(O)cc2)c1 (stereo unspecified)	> 100	> 100	> 100	> 100	> 100	–	> 100	> 100	> 100	–	–	–	–	–	–	–	–	–	–	–
COc1ccc2[nH]c3c(C)c4c(c(C)c3c2c1)CN(C)CC4	35.9	74.1	27.8	15.5	27.5	25.8	35.3	29.8	34.1	–	–	–	–	–	–	–	–	–	–	–
OCCC1(O)CCC(O)CC1 (stereo unspecified)	> 100	> 100	> 100	> 100	> 100	> 100	> 100	> 100	–	–	–	–	–	–	–	–	–	–	–	–
COc1cc(/C=C/c2cc(/C=C/c3ccc(O)c(OC)c3)n(-c3ccccc3)n2)ccc1O	4.02	> 100	1.83	–	2.72	3.55	–	–	7.26	0.532	0.347	0.582	0.265	1.7	–	0.386	0.466	–	–	0.33
